Assay results: patent publication US8338638B2, “Antimicrobial derivatives of anacardic acid and process for preparing the same” (Unichem Laboratories Ltd., priority 2006, dated 2012)
Converted amounts (≈) assume the structure as drawn. Like-named read-outs stand apart in the source and are kept apart here.

Assays:
[1] = system: MRSA; settings: against MRSA; Kube et al; cited from earlier work
[2] = system: Sa (NCTC8325); test: Broth assay, antibacterial activity (MIC/MBC) against Sa (NCTC8325); assay type: cell-based, Stapphalococcus aureus; settings: for MIC: 24 h
Experimental: (§1) The invention specifically relates to the process for the preparation of antimicrobial derivatives of saturated anacardic acid (C15:0). The mixture of anacardic acids chromatographically purified from CNSL was hydrogenated using Pd—C to get the saturated anacardic acid (C15:0). Said derivatives were prepared by adopting the techniques used in synthetic chemistry for nitration, halogenation and acetylation of various organic compounds. The synthesized derivatives were assayed for anti bacterial activity against Stapphalococcus aureus and Methicillin resistant Stapphalococcus aureus and Enterococcus fecalis by the broth assay used for antibiotic susceptibility tests and the minimum inhibitory concentration (MIC) and minimum bactericidal concentration (MBC) determined.
(§2) Procedure for Antimicrobial Testing:
(§3) The bacterial colonies from Luria-Bertani (LB) agar plates were inoculated into sterile LB broth and incubated in an incubator shaker for 12 h. This culture was diluted such that the innoculum when added to the test broth would correspond to 10^5 colony forming units (CFU). The broth assays were done in sterile culture tubes containing 5 mL of LB medium. The test compounds dissolved in ethanol and controls were added to these tubes and then the innoculum was added and the tubes incubated at 37° C. for 24 h. After 24 h incubation the OD600 was recorded and then plated on LB agar plates and incubated fore 24 h at 37° C. The colonies were counted and the minimum inhibitory concentration (MIC) and minimum bactericidal concentration (MBC) calculated. The MIC is determined by the minimum concentration of the sample at which no growth was observed as determined by measuring the OD600. The MBC is determined by the concentration at which there is a reduction in the cfu in the broth assay from 10^5 to 10^3 counted after plating on LB agar plates.

[3] = system: E. fecalis; test: Broth assay, antibacterial activity (MIC/MBC) against E. fecalis; assay type: cell-based; settings: Enterococcus; for MIC: 24 h
Experimental: as §1, §2, §3

[4] = system: MRSA; test: Broth assay, antibacterial activity (MIC/MBC) against MRSA; assay type: cell-based, Methicillin resistant Stapphalococcus aureus; settings: Staphylococcus aureus; for MIC: 24 h
Experimental: as §1, §2, §3

[5] = Sa (NCTC8325), LB broth, 37° C., no growth by OD600, read-out: MIC
[6] = Sa (NCTC8325), reduction in cfu from 10^5 to 10^3 after plating on LB agar, read-out: MBC
[7] = E. fecalis, LB broth, 37° C., no growth by OD600, read-out: MIC
[8] = E. fecalis, reduction in cfu from 10^5 to 10^3 after plating on LB agar, read-out: MBC
[9] = LB broth, 37° C., no growth by OD600, read-out: MIC
[10] = reduction in cfu from 10^5 to 10^3 after plating on LB agar, read-out: MBC

SMILES	MIC [2, 5]	MIC [3, 7]	MIC [4, 9]	minimum inhibitory concentration (MIC) [1]	MBC [2, 6]	MBC [3, 8]	MBC [4, 10]	MBC [2]	MIC [2]	MBC [3]	MIC [3]	MBC [4]	MIC [4]
CCCCCCCCCCCCCCCc1cccc(O)c1C(=O)O [AA, 6-pentadecyl salicylic acid, reference compound]	> 10 µg/mL	0.5 µg/mL (≈ 1.43 µM)	> 50 µg/mL	1600 µg/mL (≈ 4590 µM)	> 10 µg/mL	6 µg/mL (≈ 17.2 µM)	> 50 µg/mL	–	–	–	–	–	–
CCCCCCCCCCCCCCCc1cccc(OC(C)=O)c1C(=O)O [AAA, 6-Pentadecyl-2-acetyloxybenzoic acid]	6 µg/mL (≈ 15.4 µM)	1 µg/mL (≈ 2.56 µM)	2 µg/mL (≈ 5.12 µM)	–	7 to 8 µg/mL (≈ 17.9 to 20.5 µM)	6 µg/mL (≈ 15.4 µM)	6 µg/mL (≈ 15.4 µM)	–	–	–	–	–	–
CCCCCCCCCCCCCCCc1c([N+](=O)[O-])cc([N+](=O)[O-])c(OC(C)=O)c1C(=O)O [ADAA, 3,5-Dinitro-6-pentadecyl-2-acetyloxybenzoic acid]	2 µg/mL (≈ 4.16 µM)	6 µg/mL (≈ 12.5 µM)	4 µg/mL (≈ 8.32 µM)	–	6 µg/mL (≈ 12.5 µM)	6 µg/mL (≈ 12.5 µM)	10 µg/mL (≈ 20.8 µM)	–	–	–	–	–	–
CCCCCCCCCCCCCCCc1cc([N+](=O)[O-])c([N+](=O)[O-])c(OC(C)=O)c1C(=O)O [ANAA, 3,4-Dinitro-6-pentadecyl-2-acetyloxybenzoic acid]	1 µg/mL (≈ 2.08 µM)	0.5 µg/mL (≈ 1.04 µM)	2 µg/mL (≈ 4.16 µM)	–	> 10 µg/mL	7 µg/mL (≈ 14.6 µM)	> 10 µg/mL	–	–	–	–	–	–
CCCCCCCCCCCCCCCc1c([N+](=O)[O-])cc([N+](=O)[O-])c(O)c1C(=O)O [DAA, 3,5-Dinitro-6-pentadecyl-2-hydroxybenzoic acid]	–	–	–	–	–	–	–	3 to 5 µg/mL (≈ 6.84 to 11.4 µM)	2 µg/mL (≈ 4.56 µM)	6 µg/mL (≈ 13.7 µM)	6 µg/mL (≈ 13.7 µM)	6 µg/mL (≈ 13.7 µM)	3 µg/mL (≈ 6.84 µM)
CCCCCCCCCCCCCCCc1c([N+](=O)[O-])cc([N+](=O)[O-])c(OC)c1C(=O)O [MDAA, 3,5-Dinitro-6-pentadecyl-2-Methoxybenzoic acid]	6 µg/mL (≈ 13.3 µM)	0.5 µg/mL (≈ 1.1 µM)	2 µg/mL (≈ 4.42 µM)	–	8 µg/mL (≈ 17.7 µM)	2 µg/mL (≈ 4.42 µM)	4 µg/mL (≈ 8.84 µM)	–	–	–	–	–	–
CCCCCCCCCCCCCCCc1cc([N+](=O)[O-])c([N+](=O)[O-])c(O)c1C(=O)O [NAA, 3,4-Dinitro-6-pentadecyl-2-hydroxybenzoic acid]	–	–	–	–	–	–	–	7 to 8 µg/mL (≈ 16 to 18.2 µM)	1 µg/mL (≈ 2.28 µM)	7 µg/mL (≈ 16 µM)	0.5 µg/mL (≈ 1.14 µM)	10 µg/mL (≈ 22.8 µM)	1 µg/mL (≈ 2.28 µM)
C=CCC=CCC=CCCCCCCCc1cccc(O)c1C(=O)O [triene (C15:3)]	–	–	–	6.5 µg/mL (≈ 19 µM)	–	–	–	–	–	–	–	–	–

More lines, main results first:

MIC [2, 5]	MIC [3, 7]	MIC [4, 9]	SMILES	minimum inhibitory concentration (MIC) [1]	MBC [2, 6]	MBC [3, 8]	MBC [4, 10]	MBC [2]	MIC [2]	MBC [3]	MIC [3]	MBC [4]	MIC [4]
> 10 µg/mL	1 µg/mL (≈ 2.13 µM)	9 to 10 µg/mL (≈ 19.2 to 21.3 µM)	CCCCCCCCCCCCCCCc1c(Br)ccc(OC(C)=O)c1C(=O)O [ADBAA, 5-Bromo-6-pentadecyl-2-acetyloxybenzoic acid]	–	> 10 µg/mL	3 µg/mL (≈ 6.39 µM)	> 10 µg/mL	–	–	–	–	–	–
> 10 µg/mL	6 µg/mL (≈ 14 µM)	> 20 µg/mL	CCCCCCCCCCCCCCCc1c(Br)ccc(O)c1C(=O)O [DBAA, 5-Bromo-6-pentadecyl-2-hydroxybenzoic acid]	–	> 10 µg/mL	6 µg/mL (≈ 14 µM)	> 20 µg/mL	–	–	–	–	–	–
1 µg/mL (≈ 2.76 µM)	1 µg/mL (≈ 2.76 µM)	1 µg/mL (≈ 2.76 µM)	CCCCCCCCCCCCCCCc1cccc(OC)c1C(=O)O [MAA, 2-Methoxy-6-Pentadecyl-benzoic acid]	–	8 µg/mL (≈ 22.1 µM)	6 µg/mL (≈ 16.5 µM)	4 µg/mL (≈ 11 µM)	–	–	–	–	–	–
> 10 µg/mL	6 µg/mL (≈ 10.7 µM)	10 to 20 µg/mL (≈ 17.8 to 35.7 µM)	CCCCCCCCCCCCCCCc1cccc(OC)c1C(=O)NC1C(=O)N2C1SC(C)(C)C2C(=O)O (centres unmarked) [MAA-APA]	–	> 10 µg/mL	> 10 µg/mL	> 20 µg/mL	–	–	–	–	–	–
> 10 µg/mL	6 µg/mL (≈ 9.98 µM)	> 20 µg/mL	C=C[C@@](C)(/C=C/c1ccc(OC(=O)c2c(CCCCCCCCCCCCCCC)cccc2OC)cc1)CCC=C(C)C [MAA-Ba]	–	> 10 µg/mL	> 10 µg/mL	> 20 µg/mL	–	–	–	–	–	–
> 10 µg/mL	6 µg/mL (≈ 11.8 µM)	> 20 µg/mL	CCCCCCCCCCCCCCCc1cccc(OC)c1C(=O)NC(Cc1ccccc1)C(=O)O (centres unmarked) [MAA-F]	–	> 10 µg/mL	> 10 µg/mL	> 20 µg/mL	–	–	–	–	–	–
> 10 µg/mL	6 µg/mL (≈ 12.5 µM)	> 20 µg/mL	CCCCCCCCCCCCCCCc1cccc(OC)c1C(=O)Nc1ccc(C(=O)O)cc1 [MAA-PABA]	–	> 10 µg/mL	> 10 µg/mL	> 20 µg/mL	–	–	–	–	–	–
> 10 µg/mL	> 10 µg/mL	> 20 µg/mL	CCCCCCCCCCCCCCCc1cccc(OC)c1C(=O)Nc1ccc([N+](=O)[O-])cc1 [MAA-PNA]	–	> 10 µg/mL	> 10 µg/mL	> 20 µg/mL	–	–	–	–	–	–
3 to 5 µg/mL (≈ 5.71 to 9.51 µM)	6 µg/mL (≈ 11.4 µM)	2 µg/mL (≈ 3.8 µM)	CCCCCCCCCCCCCCCc1cccc(OC)c1C(=O)NC(Cc1ccc(O)cc1)C(=O)O (centres unmarked) [MAAY]	–	> 10 µg/mL	> 10 µg/mL	10 µg/mL (≈ 19 µM)	–	–	–	–	–	–
3 to 5 µg/mL (≈ 6.8 to 11.3 µM)	1 µg/mL (≈ 2.27 µM)	0.5 µg/mL (≈ 1.13 µM)	CCCCCCCCCCCCCCCc1c(Br)ccc(OC)c1C(=O)O [MDBAA, 5Bromo-6-pentadecyl-2-methoxybenzoic acid]	–	5 µg/mL (≈ 11.3 µM)	3 µg/mL (≈ 6.8 µM)	4 µg/mL (≈ 9.06 µM)	–	–	–	–	–	–
